Laboratory results as given in patent US20150072968A1, “Treating Infections with Ceftolozane/Tazobactam in Subjects Having Impaired Renal Function” (Calixa Therapeutics, Inc., priority 2013, published 2015).

Key:
gram-negative pathogens = assay: Baseline susceptibility testing of cUTI isolates, CLSI broth microdilution; type: cell-based; conditions: mMITT population; ceftolozane/tazobactam breakpoint ≦8 mg/1, levofloxacin CLSI criteria
Description: (§1) 764 isolates of Gram-negative aerobic organisms were isolated from 800 patients in the microbiological modified intent-to-treat population (enrolled in 20 countries in Eastern Europe, North America, South America and 5 countries outside of these regions). Susceptibility (S) testing was performed with ceftolozane/tazobactam at a fixed 4 μg/mL of tazobactam and 10 antibiotic comparators using CLSI broth microdilution methods. ESBL enzymes were identified by PCR.

[1] = human, in vivo, 7 days
P. aeruginosa = assay: Baseline susceptibility testing of cUTI isolates, CLSI broth microdilution; type: cell-based, Pseudomonas aeruginosa; conditions: comparators
Description: as §1

[2] = system: complicated urinary tract infections (including pyelonephritis); assay: Phase 3 study of complicated urinary tract infections, composite microbiological and clinical cure at TOC visit; type: in vivo, human; conditions: for Composite Cure Rate at TOC: levofloxacin-resistant population
Excerpt: (§2) The primary efficacy endpoint was the composite microbiological and clinical cure response at the test-of-cure (TOC) visit in the microbiologically modified intent-to-treat (mMITT) population, which included all patients who received study medication and had at least 1 baseline uropathogen. The key secondary efficacy endpoint was the composite microbiological and clinical cure response at the TOC visit in the microbiologically evaluable (ME) population, which included protocol-adherent mMITT patients with a urine culture at the TOC visit.

E. coli = assay: Baseline susceptibility testing of cUTI isolates, CLSI broth microdilution; type: cell-based, Escherichia coli
Description: as §1

Enterobacteriaceae = assay: Phase 3 cUTI study, per pathogen microbiological eradication; type: in vivo; conditions: levofloxacin-resistant population, ME
Excerpt: as §2

Pseudomonas aeruginosa [3] = assay: as above; type: in vivo; conditions: levofloxacin-resistant population, ME
Excerpt: as §2

Klebsiella pneumoniae [4] = assay: as above; type: in vivo; conditions: levofloxacin-resistant population, ME
Excerpt: as §2

Escherichia coli [5] = assay: as above; type: in vivo; conditions: levofloxacin-resistant population, ME
Excerpt: as §2

[6] = Phase 1 single dose PK of 750 mg ceftolozane/tazobactam in severe renal impairment and ESRD on hemodialysis (Example 8); type: in vivo, human
Description: This was a Phase 1, multicenter, prospective, open-label study of 750 mg ceftolozane/tazobactam (as CXA-201) administered IV in male and female adult subjects with severe renal impairment (estimated CLCR<30 mL/min) and subjects with end-stage renal disease (ESRD) on hemodialysis (HD). The primary objective of the study was to determine the PK profile of ceftolozane/tazobactam in subjects with severe renal impairment and subjects with ESRD on HD and to determine the effect of HD on the clearance of ceftolozane/tazobactam.
Subjects with severe renal impairment received a single IV 1-hour infusion of 750 mg ceftolozane/tazobactam on Day 1. […] Subjects in this cohort received an IV dose of 750 mg ceftolozane/tazobactam as a 1 hour infusion immediately after their first HD session on Day 1 (postdialysis, approximately 72 hours prior to the next HD session) and a second dose of ceftolozane/tazobactam approximately 2 hours before their second HD session on Day 4 of the study. Infusion of ceftolozane/tazobactam was completed approximately 1 hour before the start of HD.
Subjects in both cohorts had urine (if not anuric) and plasma samples collected for determination of levels of ceftolozane, tazobactam and the M1 metabolite of tazobactam; subjects in the ESRD on HD cohort also had dialysate fluid samples collected for PK assessment. Plasma, urine, and dialysate levels of ceftolozane, tazobactam, and its metabolite M1 collected over a prespecified interval were determined by LC/MS/MS assay.
All subjects underwent hemodialysis for 3 to 4 hours using a high-flux membrane (either 1.4, 1.8, or 1.9 m^2) on Days 1, 4, and 6 as scheduled. Average blood flow rate was 264 to 600 mL/min and average dialysis flow rate was either 600 or 800 mL/min for all subjects with ESRD.

[7] = system: Streptococcus constellatus; assay: Phase 3 cIAI study, per pathogen clinical cure; type: in vivo; conditions: ME population
Description: (§3) A total of 979 adults hospitalized with complicated intra-abdominal infections were randomized and received study medications in a multinational, double-blind study comparing CXA-201 (1.5 g IV every 8 hours) plus metronidazole (500 mg IV every 8 hours) to meropenem (1 g IV every 8 hours) for 4 to 14 days of therapy. Complicated intra-abdominal infections included appendicitis, cholecystitis, diverticulitis, gastric/duodenal perforation, perforation of the intestine, and other causes of intra-abdominal abscesses and peritonitis. The primary efficacy endpoint was clinical response at the test-of-cure (TOC) visit in the microbiological intent-to-treat (MITT) population, which included all patients who had at least 1 baseline intra-abdominal pathogen. The key secondary efficacy endpoint was clinical response at the TOC visit in the microbiologically evaluable (ME) population, which included all protocol-adherent MITT patients.

Bacteroides ovatus = assay: Phase 3 cIAI study, per pathogen clinical cure; type: in vivo; conditions: ME population
Description: as §3

Aerobic Gram-negative = assay: Phase 3 cIAI study, per pathogen clinical cure; type: in vivo; conditions: ME population
Description: as §3

Pseudomonas aeruginosa [8] = assay: Phase 3 cIAI study, per pathogen clinical cure; type: in vivo; conditions: ME population
Description: as §3

Aerobic Gram-positive = assay: Phase 3 cIAI study, per pathogen clinical cure; type: in vivo; conditions: ME population
Description: as §3

Klebsiella pneumoniae [9] = assay: Phase 3 cIAI study, per pathogen clinical cure; type: in vivo; conditions: ME population
Description: as §3

Enterobacter cloacae = assay: Phase 3 cIAI study, per pathogen clinical cure; type: in vivo; conditions: ME population
Description: as §3

Klebsiella oxytoca = assay: Phase 3 cIAI study, per pathogen clinical cure; type: in vivo; conditions: ME population
Description: as §3

Streptococcus salivarius = assay: Phase 3 cIAI study, per pathogen clinical cure; type: in vivo; conditions: ME population
Description: as §3

Bacteroides fragilis = assay: Phase 3 cIAI study, per pathogen clinical cure; type: in vivo; conditions: ME population
Description: as §3

Streptococcus anginosus = assay: Phase 3 cIAI study, per pathogen clinical cure; type: in vivo; conditions: ME population
Description: as §3

Escherichia coli [10] = assay: Phase 3 cIAI study, per pathogen clinical cure; type: in vivo; conditions: ME population
Description: as §3

Bacteroides vulgatus = assay: Phase 3 cIAI study, per pathogen clinical cure; type: in vivo; conditions: ME population
Description: as §3

Anaerobic Gram-negative = assay: Phase 3 cIAI study, per pathogen clinical cure; type: in vivo; conditions: ME population
Description: as §3

Proteus mirabilis = assay: Phase 3 cIAI study, per pathogen clinical cure; type: in vivo; conditions: ME population
Description: as §3

[11] = system: Bacteroides thetaiotaomicron; assay: Phase 3 cIAI study, per pathogen clinical cure; type: in vivo; conditions: ME population
Description: as §3

[12] = system: complicated intra-abdominal infections; assay: Phase 3 study of complicated intra-abdominal infections, clinical response at TOC visit; type: in vivo, human
Description: as §3

[13] = system: Klebsiella pneumoniae (KPN); assay: Baseline susceptibility testing of cUTI isolates, CLSI broth microdilution; type: cell-based
Description: as §1

[14] = ESRD on HD, second IV infusion of 750 mg on Day 4 (during HD)
[15] = ESRD on HD, second infusion Day 4, start of infusion to end of dialysis
[16] = severe renal impairment, single IV 1-hour infusion of 750 mg ceftolozane/tazobactam

C[C@H]1COc2c(N3CCN(C)CC3)c(F)cc3c(=O)c(C(=O)O)cn1c23 [Levofloxacin]
gram-negative pathogens isolated at baseline susceptible (gram-negative pathogens): 70.7%
adverse event gastrointestinal symptoms [1]: 11.4%
adverse event headache [1]: 4.9%
incidence of treatment-limiting adverse events [1]: < 2%
patients with adverse events [1]: 34.4%
susceptibility of isolates (P. aeruginosa): 35.0%
Composite microbiological and clinical cure rate at TOC visit ([2]; ME population): 266/353 (75.4) %
Composite Cure Rate at TOC ([2]; ME): 43.4%
Composite Cure Rate at TOC ([2]; mMITT): 39.3%
Composite microbiological and clinical cure rate at TOC visit ([2]; mMITT population): 275/402 (68.4) %
MIC50 (E. coli; E. coli baseline isolates): 0.03 mg/1
MIC90 (E. coli; E. coli baseline isolates): > 4 mg/1
E. coli isolates susceptible (E. coli; mMITT population, regardless of ESBL phenotype): 74.1%
Per-pathogen Microbiological Eradication Rate at TOC (Enterobacteriaceae): 45.2%
Per-pathogen Microbiological Eradication Rate at TOC (Pseudomonas aeruginosa [3]): 37.5 (3/8) %
Per-pathogen Microbiological Eradication Rate at TOC (Klebsiella pneumoniae [4]): 30.0 (3/10) %
Per-pathogen Microbiological Eradication Rate at TOC (Escherichia coli [5]): 44.1%

C[C@](Cn1ccnn1)([C@@H](N)C(=O)O)S(=O)O [M1 Metabolite]
Cmax, Mean (CV %) ([6]; ESRD on HD, Day 1 IV infusion of 750 mg (non-hemodialysis phase)): 10.0 (40) μg/mL
AUClast, Mean (CV %) ([6]; ESRD on HD, Day 1 IV infusion of 750 mg (non-hemodialysis phase), through 48 hours): 367 (42) μg·h/mL
Cmax, Mean (CV %) [6, 14]: 10.8 (46) μg/mL
tmax, Median (minimum, maximum) [6, 14]: 1.5 (0.5, 24.0) h
AUClast, Mean (CV %) ([6]; ESRD on HD, second IV infusion of 750 mg on Day 4 (during HD), through 44 hours): 176 (40) μg·h/mL
AUClast, Mean (CV %) ([6]; ESRD on HD, second infusion Day 4, approximately 6 hours from start of infusion to end of dialysis): 23.8 (44) μg·h/mL
Cmax, Mean (CV %) [6, 15]: 10.6 (49) μg/mL
t1/2, Mean (CV %) [6, 15]: 1.54 (48) h
tmax, Median (minimum, maximum) [6, 15]: 1.5 (0.5, 1.5) h
AUC∞, Mean (CV %) [6, 16]: 60.3 (30) μg·h/mL
t1/2, Mean (CV %) [6, 16]: 12.0 (29) h
Cmax, Mean (CV %) ([6]; severe renal impairment, single IV 1-hour infusion of 750 mg ceftolozane/tazobactam, plasma): 2.2 (20) μg/mL
AUClast, Mean (CV %) ([6]; severe renal impairment, single IV 1-hour infusion of 750 mg ceftolozane/tazobactam, plasma, through 48 hours): 53.7 (25) μg·h/mL
Exposure (AUC48h) After HD (Day 1), Median (Range) ([6]; subjects with ESRD): 389 (99.8 − 538) μg·h/mL
Exposure (AUC48h) During HD (Day 3), Median (Range) ([6]; subjects with ESRD): 182 (78 − 255) μg·h/mL
removed by dialysis ([6]; subjects with ESRD on HD): ~51%
AUC48h Ratio (Day 3:1), Median (Range) ([6]; subjects with ESRD, during HD vs after HD): 0.49 (0.38 − 0.78)
Percent Removed, Median (Range) ([6]; subjects with ESRD, hemodialysis): 51 (22 − 63) Percent

C[C@@H](O)[C@H]1C(=O)N2C(C(=O)O)=C(S[C@@H]3CN[C@H](C(=O)N(C)C)C3)[C@H](C)[C@H]12 [Meropenem]
Per pathogen clinical cure rate [7]: 20/23 (87.0) %
Per pathogen clinical cure rate (Bacteroides ovatus): 42/42 (100) %
Per pathogen clinical cure rate (Aerobic Gram-negative): 273/291 (93.8) %
Per pathogen clinical cure rate (Pseudomonas aeruginosa [8]): 27/29 (93.1) %
Per pathogen clinical cure rate (Aerobic Gram-positive): 170/185 (91.9) %
Per pathogen clinical cure rate (Klebsiella pneumoniae [9]; Klebsiella pneumonia): 22/25 (88.0) %
Per pathogen clinical cure rate (Klebsiella pneumoniae [9]; Klebsiella pneumoniae (CTX-M-15 ESBL-producing)): 7/9 (77.8) %
Per pathogen clinical cure rate (Klebsiella pneumoniae [9]; Klebsiella pneumoniae (ESBL-producing)): 3/4 (75.0) %
Per pathogen clinical cure rate (Enterobacter cloacae): 22/22 (100) %
Per pathogen clinical cure rate (Klebsiella oxytoca): 21/22 (95.5) %
Per pathogen clinical cure rate (Streptococcus salivarius): 8/8 (100) %
Per pathogen clinical cure rate (Bacteroides fragilis): 56/57 (98.2) %
Per pathogen clinical cure rate (Streptococcus anginosus): 23/23 (100) %
Per pathogen clinical cure rate (Escherichia coli [10]; Escherichia coli): 216/231 (93.5) %
Per pathogen clinical cure rate (Escherichia coli [10]; Escherichia coli (CTX-M-14/15 ESBL-producing)): 7/9 (77.8) %
Per pathogen clinical cure rate (Escherichia coli [10]; Escherichia coli (EBSL-producing)): 18/20 (90.0) %
Per pathogen clinical cure rate (Bacteroides vulgatus): 21/22 (95.5) %
Per pathogen clinical cure rate (Anaerobic Gram-negative): 132/137 (96.4) %
Per pathogen clinical cure rate (Proteus mirabilis): 9/10 (90.0) %
Per pathogen clinical cure rate [11]: 40/43 (93.0) %
Clinical cure rate at TOC visit ([12]; ME population): 304/321 (94.7) %
Clinical cure rate at TOC visit ([12]; MITT population): 364/417 (87.3) %

NCC[C@H](O)C(=O)N[C@@H]1C[C@H](N)[C@@H](O[C@H]2O[C@H](CN)[C@@H](O)[C@H](O)[C@H]2O)[C@H](O)[C@H]1O[C@H]1O[C@H](CO)[C@@H](O)[C@H](N)[C@H]1O [amikacin]
susceptibility of isolates (P. aeruginosa): 55.0%

CO/N=C(\C(=O)N[C@@H]1C(=O)N2C(C(=O)[O-])=C(C[N+]3(C)CCCC3)CS[C@H]12)c1csc(N)n1 [cefepime]
susceptibility of isolates (P. aeruginosa): 50.0%

CC(C)(O/N=C(\C(=O)N[C@@H]1C(=O)N2C(C(=O)[O-])=C(C[n+]3ccccc3)CS[C@H]12)c1csc(N)n1)C(=O)O [ceftazidime]
isolates inhibited at ≦8 μg/mL [13]: 58.2%
susceptibility of isolates (P. aeruginosa): 40.0%

C[C@@H](O)[C@H]1C(=O)N2C(C(=O)O)=C(SCCN=CN)C[C@H]12 [imipenem]
susceptibility of isolates (P. aeruginosa): 45.0%
